In experiment [1] the target is T1, PBP3 from Escherichia coli (K-12) (Escherichia coli, UniProt P0AD68).
T1 construct: made in house
Description: Bocillin-FL fluorescence polarization competition binding, E. coli PBP3. A digest of the protocol: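 Purified PBP was preincubated with inhibitor (E. coli PBP3 1.5 μM, 30 min; P. aeruginosa PBP3 0.75 μM, A. baumannii PBP3 0.2 μM and PBP1a 1 μM, 15 min), then Bocillin-FL (0.1 μM; 0.05 μM for PBP1a) added and FP read up to 60 min. EC50 = 50% loss of bound probe.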
(In general: Fluorescence polarisation rises when a labelled molecule tumbles more slowly, as on binding a larger partner.)

The target in another experiment is T2, A. baumannii PBP1a (Acinetobacter baumannii, UniProt A0ABX6CK30).
T2 sequence (A0ABX6CK30 1-851): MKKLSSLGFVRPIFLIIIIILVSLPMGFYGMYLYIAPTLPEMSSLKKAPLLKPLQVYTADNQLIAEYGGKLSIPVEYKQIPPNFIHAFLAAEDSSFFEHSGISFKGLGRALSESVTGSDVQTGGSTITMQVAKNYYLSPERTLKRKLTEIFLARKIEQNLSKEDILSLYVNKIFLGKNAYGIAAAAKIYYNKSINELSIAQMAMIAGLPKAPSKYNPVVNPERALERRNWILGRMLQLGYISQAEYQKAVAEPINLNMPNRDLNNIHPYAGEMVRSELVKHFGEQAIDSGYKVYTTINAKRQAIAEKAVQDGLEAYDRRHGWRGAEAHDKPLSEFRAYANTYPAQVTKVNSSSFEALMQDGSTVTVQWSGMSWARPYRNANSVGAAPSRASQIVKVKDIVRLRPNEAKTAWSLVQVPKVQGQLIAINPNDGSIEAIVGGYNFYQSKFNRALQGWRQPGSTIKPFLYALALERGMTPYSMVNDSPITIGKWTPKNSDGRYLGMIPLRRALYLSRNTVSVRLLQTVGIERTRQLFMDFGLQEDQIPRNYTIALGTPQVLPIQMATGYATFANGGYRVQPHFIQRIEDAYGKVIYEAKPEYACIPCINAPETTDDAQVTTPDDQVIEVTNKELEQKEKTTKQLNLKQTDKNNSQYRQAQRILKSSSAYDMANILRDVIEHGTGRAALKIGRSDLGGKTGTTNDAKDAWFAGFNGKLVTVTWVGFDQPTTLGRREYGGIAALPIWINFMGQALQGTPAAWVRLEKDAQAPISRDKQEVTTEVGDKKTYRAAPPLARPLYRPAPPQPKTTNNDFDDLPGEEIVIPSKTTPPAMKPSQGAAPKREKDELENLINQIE
Description: Bocillin-FL competition binding via gel filtration, A. baumannii PBP1a. Conditions: competition binding assay using Bocillin-FL via gel filtration; read-out: A. baumannii PBP1a Potency. In short, it runs like this:
(§1)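 Competitive equilibrium binding with Bocillin-FL reporter: PBP pre-incubated with inhibitor dilutions, Bocillin-FL added, 15 min incubation. Labelled enzyme isolated by size-exclusion spin plates, fluorescence measured; EC50 obtained by fitting bound fraction against inhibitor concentration with a Hill-coefficient model.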
For orientation: Size exclusion chromatography separates by hydrodynamic size, large species first.

Another experiment deals with A. baumannii PBP2 (Acinetobacter baumannii, UniProt D0C8Z9). Description: Bocillin-FL competition binding via gel filtration, A. baumannii PBP2. A digest of the protocol: as §1
In a further experiment the test system is A. baumannii ATCC 19606. Description: microbe, parasite or virus in culture. The class given is cell-based. Conditions: Acinetobacter baumannii, ATCC19606, read-out: MIC, A. baumannii ATCC 19606.
For a further experiment, the system named is P. aeruginosa CDC-0095. Nature of the experiment: microbe, parasite or virus in culture. The class given is cell-based. Conditions: Pseudomonas aeruginosa, CDC0095, read-out: Minimum inhibitory concentration, P. aeruginosa CDC-0095.
Another experiment concerns A. baumannii CDC-0033. Nature of the experiment: microbe, parasite or virus in culture. It counts as cell-based. Conditions: Acinetobacter baumannii, CDC0033, read-out: MIC, A. baumannii CDC-0033.

The structures appear in SMILES notation. Values after ≈ are worked out from the molar mass of the structure shown.

Sequence of A. baumannii PBP2 (D0C8Z9 whole entry): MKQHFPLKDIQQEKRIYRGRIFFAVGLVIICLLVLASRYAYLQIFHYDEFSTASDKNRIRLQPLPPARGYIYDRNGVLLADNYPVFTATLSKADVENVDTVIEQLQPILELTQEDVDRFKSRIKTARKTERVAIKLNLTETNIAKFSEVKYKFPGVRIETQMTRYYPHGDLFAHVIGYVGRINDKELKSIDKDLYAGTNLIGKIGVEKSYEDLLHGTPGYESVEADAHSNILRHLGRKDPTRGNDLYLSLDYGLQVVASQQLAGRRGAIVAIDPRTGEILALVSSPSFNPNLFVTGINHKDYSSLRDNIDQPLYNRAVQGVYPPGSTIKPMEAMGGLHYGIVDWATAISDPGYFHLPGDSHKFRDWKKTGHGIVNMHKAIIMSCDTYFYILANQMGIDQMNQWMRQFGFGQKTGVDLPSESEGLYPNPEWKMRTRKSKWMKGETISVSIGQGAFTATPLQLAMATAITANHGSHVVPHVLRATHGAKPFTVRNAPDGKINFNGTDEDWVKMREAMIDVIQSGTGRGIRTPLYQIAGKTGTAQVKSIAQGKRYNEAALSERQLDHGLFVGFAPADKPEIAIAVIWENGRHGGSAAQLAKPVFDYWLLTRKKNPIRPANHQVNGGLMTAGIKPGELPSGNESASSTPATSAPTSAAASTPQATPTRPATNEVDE
T1 sequence (P0AD68 1-577): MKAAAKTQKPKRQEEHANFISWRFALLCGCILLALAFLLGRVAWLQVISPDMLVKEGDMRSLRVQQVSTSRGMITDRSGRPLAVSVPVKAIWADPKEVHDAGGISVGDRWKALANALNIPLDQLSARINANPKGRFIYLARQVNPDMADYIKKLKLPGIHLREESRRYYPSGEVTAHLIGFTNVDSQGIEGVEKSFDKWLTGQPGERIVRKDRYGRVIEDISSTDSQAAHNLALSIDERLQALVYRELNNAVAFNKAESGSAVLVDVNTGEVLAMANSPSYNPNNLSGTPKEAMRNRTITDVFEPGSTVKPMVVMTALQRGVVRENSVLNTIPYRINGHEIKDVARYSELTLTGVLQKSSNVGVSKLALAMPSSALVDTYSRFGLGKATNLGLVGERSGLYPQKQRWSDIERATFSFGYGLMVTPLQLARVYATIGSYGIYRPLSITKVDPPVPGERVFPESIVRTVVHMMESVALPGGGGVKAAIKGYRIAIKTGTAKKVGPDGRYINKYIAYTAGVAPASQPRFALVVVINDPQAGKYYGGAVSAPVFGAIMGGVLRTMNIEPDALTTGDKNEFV

As to `O=C(NCCCN1CCN(C(=O)NC(C(=O)N[C@H]2Cc3ccc(F)c(C(=O)O)c3OB2O)c2cc(F)c(O)c(O)c2Cl)C(=O)C1=O)c1cc(F)ncc1F` (mixture of isomers) [Example 405], the EC50 in experiment [1] is below 10 µM; at A. baumannii PBP1a, 10 to 50 µM; on A. baumannii PBP2, 10 to 50 µM. Moreover, the MIC is below 1 µg/mL in the experiment on A. baumannii ATCC 19606, 2 to 4 µg/mL in the experiment on P. aeruginosa CDC-0095 and 2 to 4 µg/mL with A. baumannii CDC-0033.

For `O=C(NCCCN1CCN(C(=O)N[C@@H](C(=O)N[C@H]2Cc3ccc(F)c(C(=O)O)c3OB2O)c2cc(F)c(O)c(O)c2Cl)C(=O)C1=O)c1cc(F)nc(F)c1` (racemic) [Example 401], the EC50 was below 10 µM in experiment [1], below 10 µM on A. baumannii PBP1a and 10 to 50 µM at A. baumannii PBP2. The MIC was below 1 µg/mL in the experiment on A. baumannii ATCC 19606, below 1 µg/mL with P. aeruginosa CDC-0095 and 2 to 4 µg/mL (≈ 2.56 to 5.12 µM) in the experiment on A. baumannii CDC-0033.

For `O=C(NCCCN1CCN(C(=O)N[C@@H](C(=O)N[C@H]2Cc3ccc(F)c(C(=O)O)c3OB2O)c2cc(F)c(O)c(O)c2Cl)C(=O)C1=O)c1ccc(O)cc1F` (racemic) [Example 417], the EC50 in experiment [1] is below 10 µM; on A. baumannii PBP1a it was 10 to 50 µM; at A. baumannii PBP2, below 10 µM. The MIC in the experiment on A. baumannii ATCC 19606 was below 1 µg/mL; in the experiment with P. aeruginosa CDC-0095 it was 8 to 16 µg/mL (≈ 10.3 to 20.6 µM); in the experiment on A. baumannii CDC-0033, 2 to 4 µg/mL (≈ 2.57 to 5.14 µM).

Consider `O=C(NCCCN1CCN(C(=O)N[C@@H](C(=O)N[C@H]2Cc3ccc(F)c(C(=O)O)c3OB2O)c2cc(F)c(O)c(O)c2Cl)C(=O)C1=O)c1c(F)cc(O)cc1F` (racemic) [Example 420], for which the figures for the EC50 (in experiment [1]; at A. baumannii PBP1a; on A. baumannii PBP2) were below 10 µM, 10 to 50 µM and 10 to 50 µM, respectively. In addition, the MIC is below 1 µg/mL in the experiment on A. baumannii ATCC 19606, 2 to 4 µg/mL (≈ 2.51 to 5.03 µM) with P. aeruginosa CDC-0095 and 2 to 4 µg/mL (≈ 2.51 to 5.03 µM) in the experiment on A. baumannii CDC-0033.

With `O=C(O)c1c(F)ccc2c1OB(O)[C@@H](NC(=O)[C@H](NC(=O)N1CCN(C3CCN(C(=O)Nc4ccc(O)cc4)CC3)C1=O)c1cc(F)c(O)c(O)c1Cl)C2` (single isomer, unassigned) [Example 468], the EC50 on A. baumannii PBP1a and at A. baumannii PBP2 was below 10 µM throughout. In addition, the MIC with A. baumannii ATCC 19606, in the experiment on P. aeruginosa CDC-0095 and with A. baumannii CDC-0033 was below 1 µg/mL in each case.

Turning to `O=C(NCCCN1CCN(C(=O)N[C@@H](C(=O)N[C@H]2Cc3ccc(F)c(C(=O)O)c3OB2O)c2cc(F)c(O)c(O)c2Cl)C(=O)C1=O)c1ccc(O)cc1Cl` (single isomer, unassigned) [Example 471], the EC50 (in experiment [1]; at A. baumannii PBP1a; at A. baumannii PBP2) was below 10 µM each time. Moreover, the MIC is below 1 µg/mL in the experiment on A. baumannii ATCC 19606, below 1 µg/mL with P. aeruginosa CDC-0095 and 2 to 4 µg/mL (≈ 2.52 to 5.04 µM) in the experiment on A. baumannii CDC-0033.

As for `O=C(NCCS(=O)(=O)N1CCN(C(=O)N[C@@H](C(=O)N[C@H]2Cc3ccc(F)c(C(=O)O)c3OB2O)c2cc(F)c(O)c(O)c2Cl)C1=O)Nc1ccncc1` [Example 290, (R)-3-((R)-2-(2-chloro-5-fluoro-3,4-dihydroxyphenyl)-2-(2-oxo-3-((2-(3-(pyridin-4-yl)ureido)ethyl)sulfonyl)imidazolidine-1-carboxamido)acetamido)-7-fluoro-2-hydroxy-3,4-dihydro-2H-benzo[e][1,2]oxaborinine-8-carboxylic acid], the EC50 (in experiment [1]; on A. baumannii PBP2) was below 10 µM throughout. For the same molecule, the MIC in the experiment on A. baumannii ATCC 19606 is below 1 µg/mL; in the experiment with P. aeruginosa CDC-0095 it was 2 to 4 µg/mL (≈ 2.56 to 5.12 µM); in the experiment with A. baumannii CDC-0033, 2 to 4 µg/mL (≈ 2.56 to 5.12 µM).

With `O=C(NCCCN1CCN(C(=O)NC(C(=O)N[C@H]2Cc3ccc(F)c(C(=O)O)c3OB2O)c2cc(F)c(O)c(O)c2Cl)C(=O)C1=O)c1ccnc(F)c1` (stereo partly drawn) [Example 466, (3R)-3-(2-(2-chloro-5-fluoro-3,4-dihydroxyphenyl)-2-(4-(3-(2-fluoroisonicotinamido)propyl)-2,3-dioxopiperazine-1-carboxamido)acetamido)-7-fluoro-2-hydroxy-3,4-dihydro-2H-benzo[e][1,2]oxaborinine-8-carboxylic acid], the values for the EC50 (in experiment [1]; at A. baumannii PBP2) were below 10 µM and 10 to 50 µM, respectively. Further, the figures for the MIC in the experiment with A. baumannii ATCC 19606, with P. aeruginosa CDC-0095 and with A. baumannii CDC-0033 were below 1 µg/mL, 2 to 4 µg/mL (≈ 2.62 to 5.24 µM) and 2 to 4 µg/mL (≈ 2.62 to 5.24 µM), respectively.

`O=C(O)c1c(F)ccc2c1OB(O)[C@@H](NC(=O)C(NC(=O)N1CCN(C3CCN(C(=O)Cc4cccc(O)c4)CC3)C(=O)C1=O)c1cc(F)c(O)c(O)c1Cl)C2` (stereo partly drawn) [Example 474, (3R)-3-(2-(2-chloro-5-fluoro-3,4-dihydroxyphenyl)-2-(4-(1-(2-(3-hydroxyphenyl)acetyl)piperidin-4-yl)-2,3-dioxopiperazine-1-carboxamido)acetamido)-7-fluoro-2-hydroxy-3,4-dihydro-2H-benzo[e][1,2]oxaborinine-8-carboxylic acid]: the values for the EC50 at A. baumannii PBP1a and at A. baumannii PBP2 were 10 to 50 µM and below 10 µM, respectively. In addition, the results for the MIC in the experiment on A. baumannii ATCC 19606, in the experiment on P. aeruginosa CDC-0095 and in the experiment with A. baumannii CDC-0033 were below 1 µg/mL, 2 to 4 µg/mL (≈ 2.5 to 5 µM) and below 1 µg/mL, respectively.

Take `O=C(O)c1c(F)ccc2c1OB(O)[C@@H](NC(=O)C(NC(=O)N1CCN(CC3CCN(C(=O)c4cccc(O)c4)CC3)C(=O)C1=O)c1cc(F)c(O)c(O)c1Cl)C2` (stereo partly drawn) [Example 475, (3R)-3-(2-(2-chloro-5-fluoro-3,4-dihydroxyphenyl)-2-(4-((1-(3-hydroxybenzoyl)piperidin-4-yl)methyl)-2,3-dioxopiperazine-1-carboxamido)acetamido)-7-fluoro-2-hydroxy-3,4-dihydro-2H-benzo[e][1,2]oxaborinine-8-carboxylic acid]: the EC50 is 10 to 50 µM at A. baumannii PBP1a and below 10 µM at A. baumannii PBP2. Moreover, the results for the MIC in the experiment with A. baumannii ATCC 19606, in the experiment on P. aeruginosa CDC-0095 and in the experiment on A. baumannii CDC-0033 were below 1 µg/mL, below 1 µg/mL and 2 to 4 µg/mL (≈ 2.5 to 5 µM), respectively.

Take `O=C(O)c1c(F)ccc2c1OB(O)[C@@H](NC(=O)C(NC(=O)N1CCN(C3CCN(C(=O)c4ccc(O)cc4O)CC3)C(=O)C1=O)c1cc(F)c(O)c(O)c1Cl)C2` (stereo partly drawn) [Example 476, (3R)-3-(2-(2-chloro-5-fluoro-3,4-dihydroxyphenyl)-2-(4-(1-(2,4-dihydroxybenzoyl)piperidin-4-yl)-2,3-dioxopiperazine-1-carboxamido)acetamido)-7-fluoro-2-hydroxy-3,4-dihydro-2H-benzo[e][1,2]oxaborinine-8-carboxylic acid]: the EC50 was 10 to 50 µM on A. baumannii PBP1a and below 10 µM at A. baumannii PBP2. Further, the MIC in the experiment on A. baumannii ATCC 19606, with P. aeruginosa CDC-0095 and with A. baumannii CDC-0033 was below 1 µg/mL each time.

On to `O=C(O)c1c(F)ccc2c1OB(O)[C@@H](NC(=O)C(NC(=O)N1CCN(CC3CCN(C(=O)Nc4cccc(O)c4)CC3)C(=O)C1=O)c1cc(F)c(O)c(O)c1Cl)C2` (stereo partly drawn) [Example 477, (3R)-3-(2-(2-chloro-5-fluoro-3,4-dihydroxyphenyl)-2-(4-((1-((3-hydroxyphenyl)carbamoyl)piperidin-4-yl)methyl)-2,3-dioxopiperazine-1-carboxamido)acetamido)-7-fluoro-2-hydroxy-3,4-dihydro-2H-benzo[e][1,2]oxaborinine-8-carboxylic acid], for which the figures for the EC50 at A. baumannii PBP1a and at A. baumannii PBP2 were 10 to 50 µM and below 10 µM, respectively. The MIC in the experiment on A. baumannii ATCC 19606 is below 1 µg/mL; in the experiment on P. aeruginosa CDC-0095 it was below 1 µg/mL; with A. baumannii CDC-0033, 2 to 4 µg/mL (≈ 2.45 to 4.91 µM).

As for `O=C(O)c1c(F)ccc2c1OB(O)[C@@H](NC(=O)C(NC(=O)N1CCN(C3CCN(C(=O)Nc4cccc(O)c4F)CC3)C(=O)C1=O)c1cc(F)c(O)c(O)c1Cl)C2` (stereo partly drawn) [Example 478, (3R)-3-(2-(2-chloro-5-fluoro-3,4-dihydroxyphenyl)-2-(4-(1-((2-fluoro-3-hydroxyphenyl)carbamoyl)piperidin-4-yl)-2,3-dioxopiperazine-1-carboxamido)acetamido)-7-fluoro-2-hydroxy-3,4-dihydro-2H-benzo[e][1,2]oxaborinine-8-carboxylic acid], the EC50 on A. baumannii PBP1a and at A. baumannii PBP2 was 10 to 50 µM in each case. The MIC was below 1 µg/mL in the experiment with A. baumannii ATCC 19606, 2 to 4 µg/mL (≈ 2.44 to 4.88 µM) in the experiment on P. aeruginosa CDC-0095 and 8 to 16 µg/mL (≈ 9.77 to 19.5 µM) with A. baumannii CDC-0033.

Source of the values: patent US20240270762A1, “PENICILLIN-BINDING PROTEIN INHIBITORS” (priority 2021, published 2024).
